Reference: patent US20090221642A1, “MUSCARINIC RECEPTOR AGONISTS, COMPOSITIONS, METHODS OF TREATMENT THEREOF, AND PROCESSES FOR PREPARATION THEREOF-176” (AstraZeneca AB, priority 2008, published 2009)

Columns and labels:
[1] = target: T1, cloned human M2 receptor (human Muscarinic receptor subtype 2) (Homo sapiens, UniProt P08172); assay: hM2 receptor GTPγS binding; format: biochemical; settings: CHO cell membranes expressing hM2; [35S]GTPγS binding; read-out: hM2 EC50
T1 construct: purchased Perkin-Elmer RBHM2M; host or cells: Chinese hamster ovary cells (CHO) membranes
T1 sequence (P08172 1-466): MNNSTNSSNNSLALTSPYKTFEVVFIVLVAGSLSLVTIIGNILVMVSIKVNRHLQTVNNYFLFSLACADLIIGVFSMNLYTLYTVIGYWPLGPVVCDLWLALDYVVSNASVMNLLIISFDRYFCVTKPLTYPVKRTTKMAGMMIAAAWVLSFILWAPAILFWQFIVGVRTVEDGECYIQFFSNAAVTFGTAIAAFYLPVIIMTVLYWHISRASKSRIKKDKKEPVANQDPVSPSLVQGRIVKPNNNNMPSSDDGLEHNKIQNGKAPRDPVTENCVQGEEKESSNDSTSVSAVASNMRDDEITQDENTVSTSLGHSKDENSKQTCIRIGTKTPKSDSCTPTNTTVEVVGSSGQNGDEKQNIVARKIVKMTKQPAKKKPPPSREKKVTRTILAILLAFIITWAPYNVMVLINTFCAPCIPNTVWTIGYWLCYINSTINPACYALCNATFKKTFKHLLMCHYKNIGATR
Description: hM2 Receptor GTPγS Binding
Membranes produced from Chinese hamster ovary cells (CHO) expressing the cloned human M2 receptor (human Muscarinic receptor subtype 2, gene bank access NM_000739), are obtained from Perkin-Elmer (RBHM2M). The membranes are thawed at 37° C., passed 3 times through a 23-gauge blunt-end needle, diluted in the GTPγS binding buffer (50 mM Hepes, 20 mM NaOH, 100 mM NaCl, 1 mM EDTA, 5 mM MgCl2, pH 7.4, 100 μM DTT). The EC50, IC50 and Emax of the compounds of the invention are evaluated from 10-point dose-response curves (three fold concentration range) done in 60 μl in 384-well non-specific binding surface plate (Corning). Ten microliters from the dose-response curves plate (5× concentration) are transferred to another 384 well plate containing 25 μl of the following: 5 μg of hM2 membranes, 500 μg of Flashblue beads (Perkin-Elmer) and GDP 25 μM. An additional 15 μl containing 3.3× (60,000 dpm) of GTPγ^35S (0.4 nM final) are added to the wells resulting in a total well volume of 50 μl. Basal and maximal stimulated [^35S]GTPγS binding are determined in absence and presence of 30 μM final of acetylcholine agonist. The membranes/beads mix are pre-incubated for 15 minutes at room temperature with 25 μM GDP prior to distribution in plates (12.5 μM final). The reversal of acetylcholine-induced stimulation (2 μM final) of [^35S]GTPγS binding is used to assay the antagonist properties (IC50) of the compounds. The plates are incubated for 60 minutes at room temperature then centrifuged at 400 rpm for 5 minutes. The radioactivity (cpm) is counted in a Trilux (Perkin-Elmer).
Values of EC50, IC50 and Emax are obtained using sigmoidal fits of a non-linear curve-fitting program (XLfit version 4.2.2 Excel add-in version 4.2.2 build 18 math 1Q version 2.1.2 build 18) of percent stimulated [^35S]GTPγS binding vs. log(molar ligand). All pEC50 and plC50 values are reported as arithmetic means ±standard error of mean of ‘n’ independent experiments.

[2] = target: T2, hM1 (human Muscarinic receptor subtype 1) (Homo sapiens, UniProt P11229); assay: Human M1 calcium mobilization FLIPR assay; format: cell-based; settings: hM1 expressed in CHO cells, intracellular Ca2+ release, read-out: hM1 EC50
T2 construct: expressed in transfected cells; host or cells: CHO cells (Chinese hamster ovary cells, ATCC)
T2 sequence (P11229 1-460): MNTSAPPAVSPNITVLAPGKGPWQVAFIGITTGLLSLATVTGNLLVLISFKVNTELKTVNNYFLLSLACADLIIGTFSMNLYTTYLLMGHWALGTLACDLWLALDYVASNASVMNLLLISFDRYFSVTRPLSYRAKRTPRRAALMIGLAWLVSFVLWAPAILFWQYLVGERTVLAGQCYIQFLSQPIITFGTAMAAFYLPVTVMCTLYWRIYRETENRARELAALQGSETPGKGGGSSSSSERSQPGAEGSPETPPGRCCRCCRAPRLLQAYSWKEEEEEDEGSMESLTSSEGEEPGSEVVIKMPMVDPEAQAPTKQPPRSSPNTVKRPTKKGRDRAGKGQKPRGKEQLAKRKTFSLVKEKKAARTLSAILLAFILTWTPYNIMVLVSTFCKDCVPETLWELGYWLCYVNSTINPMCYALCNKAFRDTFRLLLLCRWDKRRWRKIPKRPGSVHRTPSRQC
In short: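 CHO cells expressing the receptor, dye-loaded at 37°C for 60 min, read on FLIPR at 510-570 nm. Agonism taken from compound-induced Ca2+ rise (max RFU for M1); M3/M5 inhibition measured against 2 nM acetylcholine using max minus min RFU. 10-point threefold dilutions, sigmoidal fits.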

`CCOC(=O)N1CCC(C)(N2CCC(n3c(=O)[nH]c4ccc(F)cc43)CC2)C1` (single isomer, unassigned) [Example 49, ethyl 3-(4-(6-fluoro-2-oxo-2,3-dihydro-1H-benzo[d]imidazol-1-yl)piperidin-1-yl)-3-methylpyrrolidine-1-carboxylate] gave an EC50 [1] of 4550 nM and an EC50 [2] of 15.1 nM.
With `COC(=O)N1CCC(C)(N2CCC(n3c(=O)[nH]c4ccc(C)cc43)CC2)C1` (single isomer, unassigned) [Example 47, methyl 3-methyl-3-(4-(6-methyl-2-oxo-2,3-dihydro-1H-benzo[d]imidazol-1-yl)piperidin-1-yl)pyrrolidine-1-carboxylate] the EC50 [1] was 127 nM and the EC50 [2] was under 3.2 nM.
In the case of `CC#CCOC(=O)N1CCC(C)(N2CCC(n3c(=O)[nH]c4ccc(C)cc43)CC2)C1` (single isomer, unassigned) [Example 20, but-2-ynyl 3-methyl-3-(4-(6-methyl-2-oxo-2,3-dihydro-1H-benzo[d]imidazol-1-yl)piperidin-1-yl)pyrrolidine-1-carboxylate], the EC50 [1] is reported as 61 nM and the EC50 [2] is reported as 14.2 nM.
`CC#CCOC(=O)N1CCC(C)(N2CCC(n3c(=O)[nH]c4cc(F)ccc43)CC2)C1` (single isomer, unassigned) [Example 22, but-2-ynyl 3-(4-(5-fluoro-2-oxo-2,3-dihydro-1H-benzo[d]imidazol-1-yl)piperidin-1-yl)-3-methylpyrrolidine-1-carboxylate] was tested, and the EC50 [1] was 126 nM and the EC50 [2] was 2.8 nM.
`CC#CCOC(=O)N1CCC(C)(N2CCC(n3c(=O)[nH]c4cc(C)ccc43)CC2)C1` (single isomer, unassigned) [Example 21, but-2-ynyl 3-methyl-3-(4-(5-methyl-2-oxo-2,3-dihydro-1H-benzo[d]imidazol-1-yl)piperidin-1-yl)pyrrolidine-1-carboxylate] gave an EC50 [1] of 94 nM and an EC50 [2] of 12.5 nM.
`CCOC(=O)N1CCC(C)(N2CCC(N3C(=O)Cc4cc(F)c(C)cc43)CC2)C1` (single isomer, unassigned) [Example 82, ethyl 3-(4-(5-fluoro-6-methyl-2-oxoindolin-1-yl)piperidin-1-yl)-3-methylpyrrolidine-1-carboxylate] gave an EC50 [1] of 270 nM and an EC50 [2] of 8.7 nM.
`CCOC(=O)N1CCC(C)(N2CCC(N3C(=O)Cc4ccccc43)CC2)C1` (single isomer, unassigned) [Example 73, ethyl 3-methyl-3-(4-(2-oxoindolin-1-yl)piperidin-1-yl)pyrrolidine-1-carboxylate] gave an EC50 [1] of 6160 nM and an EC50 [2] of 31 nM.
`CCOC(=O)N1CCC(C)(N2CCC(N3C(=O)Cc4ccc(C)cc43)CC2)C1` (single isomer, unassigned) [Example 70, ethyl 3-methyl-3-(4-(6-methyl-2-oxoindolin-1-yl)piperidin-1-yl)pyrrolidine-1-carboxylate] showed an EC50 [1] of 448 nM and an EC50 [2] of 9.8 nM.
Compound `COC(=O)N1CCC(C)(N2CCC(N3C(=O)Cc4ccc(C)cc43)CC2)C1` (single isomer, unassigned) [Example 68, methyl 3-methyl-3-(4-(6-methyl-2-oxoindolin-1-yl)piperidin-1-yl)pyrrolidine-1-carboxylate] has an EC50 [1] of 1150 nM and an EC50 [2] of 13.3 nM.
`CCOC(=O)N1CCC(C)(N2CCC(n3c(=O)[nH]c4ccccc43)CC2)C1` (stereo not shown) [Example 1, ethyl 3-methyl-3-(4-(2-oxo-2,3-dihydro-1H-benzo[d]imidazol-1-yl)piperidin-1-yl)pyrrolidine-1-carboxylate] was tested, and the EC50 [1] was 498 nM and the EC50 [2] was 4.2 nM.
With `COC(=O)N1CCC(C)(N2CCC(N3C(=O)Cc4ccc(F)cc43)CC2)C1` (single isomer, unassigned) [Example 76, methyl 3-(4-(6-fluoro-2-oxoindolin-1-yl)piperidin-1-yl)-3-methylpyrrolidine-1-carboxylate] the EC50 [1] was 3500 nM and the EC50 [2] was 40.1 nM.
`CC1(N2CCC(n3c(=O)[nH]c4cc(F)ccc43)CC2)CCN(C(=O)OCCF)C1` (single isomer, unassigned) [Example 24, 2-fluoroethyl 3-(4-(5-fluoro-2-oxo-2,3-dihydro-1H-benzo[d]imidazol-1-yl)piperidin-1-yl)-3-methylpyrrolidine-1-carboxylate] gave an EC50 [1] of 1350 nM and an EC50 [2] of 10.4 nM.
`COC(=O)N1CCC(C)(N2CCC(n3c(=O)[nH]c4cc(C)ccc43)CC2)C1` (single isomer, unassigned) [Example 48, methyl 3-methyl-3-(4-(5-methyl-2-oxo-2,3-dihydro-1H-benzo[d]imidazol-1-yl)piperidin-1-yl)pyrrolidine-1-carboxylate] showed an EC50 [1] of 571 nM and an EC50 [2] of 8.5 nM.
Compound `CCOC(=O)N1CCC(C)(N2CCC(n3c(=O)[nH]c4ccc(F)cc43)CC2)C1` (single isomer, unassigned) [Example 50, ethyl 3-(4-(6-fluoro-2-oxo-2,3-dihydro-1H-benzo[d]imidazol-1-yl)piperidin-1-yl)-3-methylpyrrolidine-1-carboxylate] has an EC50 [1] of 498 nM and an EC50 [2] of 2.2 nM.
`CCOC(=O)N1CCC(C)(N2CCC(n3c(=O)[nH]c4ccc(C)cc43)CC2)C1` (stereo not shown) [Example 16, ethyl 3-methyl-3-(4-(6-methyl-2-oxo-2,3-dihydro-1H-benzo[d]imidazol-1-yl)piperidin-1-yl)pyrrolidine-1-carboxylate] showed an EC50 [1] of 418 nM and an EC50 [2] of 8.1 nM.
For `CCOC(=O)N1CCC(C)(N2CCC(N3C(=O)Cc4cc(F)ccc43)CC2)C1` (single isomer, unassigned) [Example 79, ethyl 3-(4-(5-fluoro-2-oxoindolin-1-yl)piperidin-1-yl)-3-methylpyrrolidine-1-carboxylate], the EC50 [1] was 1130 nM and the EC50 [2] was 9.2 nM.
Work on `CCOC(=O)N1CCC(C)(N2CCC(N3C(=O)Cc4ccccc43)CC2)C1` (single isomer, unassigned) [Example 72, ethyl 3-methyl-3-(4-(2-oxoindolin-1-yl)piperidin-1-yl)pyrrolidine-1-carboxylate] yielded an EC50 [1] of 950 nM and an EC50 [2] of 9.5 nM.
`CCOC(=O)N1CCC(C)(N2CCC(n3c(=O)[nH]c4cc(F)ccc43)CC2)C1` (single isomer, unassigned) [Example 7, ethyl 3-(4-(5-fluoro-2-oxo-2,3-dihydro-1H-benzo[d]imidazol-1-yl)piperidin-1-yl)-3-methylpyrrolidine-1-carboxylate] gave an EC50 [1] of 4500 nM and an EC50 [2] of under 6.6 nM.
With `C#CCOC(=O)N1CCC(C)(N2CCC(n3c(=O)[nH]c4cc(F)ccc43)CC2)C1` (stereo not shown) [Example 11, prop-2-ynyl 3-(4-(5-fluoro-2-oxo-2,3-dihydro-1H-benzo[d]imidazol-1-yl)piperidin-1-yl)-3-methylpyrrolidine-1-carboxylate] the EC50 [1] was 149 nM and the EC50 [2] was 2 nM.
`CCOC(=O)N1CCC(C)(N2CCC(N3C(=O)Cc4ccc(F)cc43)CC2)C1` (single isomer, unassigned) [Example 74, ethyl 3-(4-(6-fluoro-2-oxoindolin-1-yl)piperidin-1-yl)-3-methylpyrrolidine-1-carboxylate] gave an EC50 [1] of 1340 nM and an EC50 [2] of 10 nM.
